{"source": "paper PMC7968666", "about": "“The pharmacokinetics and drug-drug interactions of ivermectin in Aedes aegypti mosquitoes” (PLoS Pathogens, 2021)", "key": {"[1]": {"test": "Mosquito dosing experiments: ivermectin recovered from single mosquitoes directly after membrane blood feeding (LC-MS/MS)", "type": "in vivo, Aedes aegypti", "method": "Drug stock solutions were prepared in DMSO and added to blank human blood at a ratio of 1:1000 so that the DMSO content was less than 0.2%. The mixtures were rotated at room temperature for 30 min to ensure a uniform drug distribution (Rotator Genie, Scientific Industries, Bohemia, USA). The sugar water within the mosquito cages was replaced by tap water 24 h prior to the PK experiments. Twelve hours later, the tap water was also removed to starve the mosquitoes. On the day of the PK experiment, 25–35 starved, female mosquitoes with an age of 6–7 days post-emergence were transferred with a mouth aspirator into 2 dl paper cups that were sealed with a piece of mosquito netting. […] A petri dish (35 mm x 10 mm, BD, Franklin Lakes, USA) was filled with 2.55 ml of warm blood, sealed with a piece of Parafilm (Parafilm M sealing film, Huberlab AG, Aesch, Switzerland) stretched over the rim and turned upside down on top of the paper cup. The mosquitoes were then feeding from blood through the netting and the Parafilm membrane. The feeding was conducted in a climate chamber (HPP110, Memmert GmbH + Co.KG, Schwabach, Germany) at 26° C, 70% humidity, and 50% light intensity. The photoperiod of the climate chamber and the insectary were synchronised. After 20 min of feeding, the cups were placed on ice to immobilise the mosquitoes and separate the fully engorged ones. […]\nThe first aim was to evaluate the variability of the blood uptake by the mosquitoes. […] The strength of the association was assessed using a linear regression model and its correlation coefficient R^2 using GraphPad prism software 9.0.0 (San Diego, USA). […]\nMosquito extracts were analysed using a modular ultra-high-pressure liquid chromatography (UPLC) system from Shimadzu (Kyoto, Japan) connected to an API 5500 QTRAP tandem mass spectrometer (AB Sciex, Massachusetts, USA). A previously developed and validated LC-MS/MS method for the quantification of ivermectin in human plasma and blood was used for the analyses. […]"}, "[2]": {"tested_on": "Aedes aegypti mosquitoes", "test": "Drug effect on mosquito fertility (percentage of eggs hatched)", "type": "in vivo", "method": "The mixtures were rotated at room temperature for 30 min to ensure a uniform drug distribution (Rotator Genie, Scientific Industries, Bohemia, USA). […] Twelve hours later, the tap water was also removed to starve the mosquitoes. […] The mosquitoes were then feeding from blood through the netting and the Parafilm membrane. […] The photoperiod of the climate chamber and the insectary were synchronised. […] The engorged mosquitoes were either directly frozen at -20°C or returned to the climate chamber for certain time periods to assess the PK. […] Blood feeding was done as described above. […] In contrast to the PK experiments, the mosquitoes had unlimited access to water because a moistened oviposition substrate was inserted into the paper cup. […] Any hatched larva was counted and transferred to a rearing tray with a plastic pipette. The fertility was calculated as the percentage of eggs hatched. […] R Foundation for Statistical Computing, http://www.R-project.org, Vienna, Austria). Normality was assessed using the Shapiro-Wilk test. For normally distributed data (mortality, fecundity), group differences were assessed with one-way ANOVA testing, and, where applicable, followed up with Tukey's test. Group differences in fertility (not normally distributed) were evaluated with Kruskal-Wallis one-way analysis of variance, and Wilcoxon rank sum testing as post-hoc."}, "[3]": {"tested_on": "Aedes aegypti mosquitoes", "details": "IVM 0.1, KCZ 5, RIF 10, RTV 10, PBO 10 μg/ml in blood; for Mosquito survival (%): 50 mosquitoes"}, "[4]": {"tested_on": "Anopheles mosquitoes", "details": "cited from earlier work"}, "[5]": {"tested_on": "Ae. aegypti", "parameters": "method as in PMID 20540931", "details": "single oral dose of 150 μg/kg; cited from earlier work"}, "[6]": {"details": "100 eggs laid 48-96 h post-treatment, IVM 0.1, KCZ 5, RIF 10, RTV 10, PBO 10 μg/ml in blood"}}, "note": "Several values for one entry are separate records, joined by “and”; a condition that tells them apart may be missing. Equal entries are not always repeated. Entries after “also recorded” stand apart in the source; their conditions may differ. Where two headings read alike, the source gives them in different places."}
{"smiles": "CCC(C)C1OC2(CCC1C)CC1CC(CC=C(C)C(OC3CC(OC)C(OC4CC(OC)C(O)C(C)O4)C(C)O3)C(C)C=CC=C3COC4C(O)C(C)=CC(C(=O)O1)C34O)O2", "note": "(stereo not drawn) [ivermectin]", "values": [{"measurement": "Saturation of uptake over the dose range", "setting": "[1]; 0.01–1 μg/ml ivermectin in blood", "value": "no saturation was observed; also recorded: without showing saturation"}, {"measurement": "Dosing precision (%CV) of ivermectin, adjusted for mosquito weight", "setting": "[1]; 0.01–1 μg/ml ivermectin in blood, n = 30 mosquitoes per dose", "value": "less than 13.4%"}, {"measurement": "Ivermectin concentration per mosquito weight", "setting": "[1]; ivermectin dose 0.01 µg/ml in blood, directly after feeding, single mosquitoes 1-30", "value": "0.007 ng/mg and 0.009 ng/mg and 0.008 ng/mg and 0.010 ng/mg and 0.011 ng/mg"}, {"measurement": "Mosquito fertility, Batch 1, hatching rate", "setting": "[2]; [6]", "value": 1, "unit": "%"}, {"measurement": "Mosquito fertility, Batch 2, hatching rate", "setting": "[2]; [6]", "value": 0, "unit": "%"}, {"measurement": "Mosquito fertility, Batch 3, hatching rate", "setting": "[2]; [6]", "value": 1, "unit": "%"}, {"measurement": "Effect on fertility of mosquito eggs", "setting": "[2]; ivermectin 0.1 μg/ml in blood", "value": "sterilised almost all mosquito eggs"}, {"measurement": "Mosquito survival (%)", "setting": "[3]; 0 days post feeding", "value": 100, "unit": "%"}, {"measurement": "Mosquito survival (%)", "setting": "[3]; 1 day post feeding", "value": 100, "unit": "%"}, {"measurement": "four-day mosquito mortality", "setting": "[3]; four days, 3 batches of 50", "value": 17, "unit": "%"}, {"measurement": "Lethal concentration for Anopheles mosquitoes", "setting": "[4]", "value": "low nanomolar range"}, {"measurement": "Host blood concentration relative to LD50 against Ae. aegypti", "setting": "[5]", "value": "≤ 10 % of the LD50"}]}
